# Measurements as given in patent US20240285623A1, “TRPA1 CHANNEL ANTAGONIST COMPOUND FOR USE IN DEGENERATIVE RETINAL DISEASES” (FLONEXT S.R.L., priority 2021, published 2024).
# Assays:
# [1] = system: RPE layer (retinal pigmented epithelium); assay: Immunofluorescence (RPE65) for assessing damage of the retinal pigment epithelium in the NalO3-induced mouse model of macular degeneration; assay type: in vivo, C57BL/6J male mice; details: for protection of the retina from NalO3-induced damage of the cells of the RPE layer (in words): NalO3 mouse model, eye drops; for reduction of the NalO3-induced damage on the RPE layer compared to V2 (RPE65 staining intensity): eye drops 5 μl of 10 mM solution, 60 min before NalO3 (20 mg/kg, retro-orbital vein) then 3 times a day, retina collected day 4, mean±SEM, P<0.01 vs. V2/NalO3
# Experimental: (§1) To create a valid model of macular degeneration, the systemic administration (via the retro-orbital vein) of NalO3 was carried out in C57BL/6J male mice aged 5-8 weeks and weighing 22-25 g supplied by the Charles River company (Milan, Italy). In order to carry out the experiments described below, a total of 36 mice were used. The animals were kept in a temperature and humidity-controlled environment (12-hour dark/light cycle, free access to food and water). The experiments were performed in a temperature-controlled room (20 to 22° C.) between 8:00 and 20:00. At the end of the experiment, the animals were euthanized by inhalation of a mixture of 50% O2/50% CO2 for 1 minute. The NalO3, DMSO, Tween 80 and NaCl 0.9% reagents used in the study were purchased from Merck Life Science SRL (Milan, Italy).
# (§2) The mice were administered locally, through eye drops, the compounds indicated above or their vehicle consisting of 4% DMSO, 4% Tween 80 in 0.9% NaCl.
# (§3) In particular, a group of 6 mice (used as a control) was administered by instillation, 60 minutes before the injection into the retro-orbital vein (1 ml/kg) of the vehicle (V1) (NaCl, 0.9%) of NalO3 and subsequently 3 times a day, eye drops (5 μl) containing the vehicle (V2) (4% DMSO, 4% Tween 80 in NaCl 0.9%) of the drugs.
# (§4) Another 30 mice received, in groups of 6 mice each, 60 minutes before the injection into the retro-orbital vein (1 ml/kg) of NalO3 (1%, 20 mg/kg) and subsequently 3 times a day, eye drops (5 μl) of a 10 mM solution of the above-mentioned compounds FN-005, FN-006, FN-007, FN-008 or their vehicle (V2) (4% DMSO, 4% Tween 80 in 0.9% NaCl) by instillation.
# (§5) For each group of mice, the first administration (day 1) of the compound of formula (IV), of the compound of formula (I), of the compound of formula (II) and of the compound of formula (III) or of the vehicle (V2) was performed 60 minutes before the injection of NalO3 or its vehicle (V1) and the second and third administration were performed 6 and 12 hours after the injection of vehicle (V1) or NalO3, respectively. On the two days (day 2 and day 3) following the injection of vehicle (V1) or NalO3, the compounds of formula (IV), (I), (II), and (III) or vehicle (V2) were administered to the various groups of mice at 8:00, 14:00 and 20:00.
# (§6) At 09:00 on day 4 after the treatment with vehicle (V1) or NalO3 the mice given the compounds indicated above as FN-005, FN-006, FN-007, FN-008 or their vehicle (V2) were sacrificed (as previously reported) and the eyeballs were enucleated and processed for subsequent analysis of the damage.
# Direct immunofluorescence was used to assess damage to the RPE (retinal pigmented epithelium), which corresponds to the layer of pigmented cells immediately adjacent to the neurosensory retina which nourishes the visual cells of the retina, and is firmly attached to the underlying choroid and the overlying visual retinal cells.
# The staining intensity of the RPE layer was quantified using a primary antibody (RPE65, #ab13826, mouse monoclonal, 1:100, Abcam, Cambridge, UK) to which a second fluorophore-labelled antibody (Alexa Fluor 488, #A28175, Thermo Fisher Scientific) binds in the 6 groups of mice treated with V2/V1, V2/NalO3, with the compound of formula (IV) and NalO3 (FN-005/NalO3), with the compound of formula (I) of polycyclic heteroaromatic derivatives and NalO3 (FN-006/NalO3), with the compound of formula (II) and NalO3 (FN-007/NalO3) and with the compound of formula (III) and NalO3 (FN-008/NalO3). Cell nuclei were visualized using the DAPI organic dye (#ab228549, Abcam, Cambridge, UK).
# The data relating to the fluorescence intensity value are presented for each treatment as mean±SEM. *p<0.05 vs V1/V2; § p<0.05 vs NalO3 in FIG. 1B. Statistical analysis using one-way analysis of variance (ANOVA) test and Bonferroni test.
# 4-hydroxynonenal (4-HNE) = assay: Assessment of oxidative stress at the retinal level (4-HNE immunofluorescence) in the NalO3-induced mouse model of macular degeneration; assay type: in vivo, C57BL/6J male mice; details: for protection of the retina from the NalO3-induced increase of 4-HNE (in words): NalO3 mouse model, eye drops; for reduction of the retinal levels of 4-HNE (immunofluorescence): eye drops 5 μl of 10 mM solution, 60 min before NalO3 (20 mg/kg, retro-orbital vein) then 3 times a day, retina collected day 4, mean±SEM, P<0.01 vs. V2/NalO3
# Experimental: as §1, §2, §3, §4, §5, §6
# The level of oxidative stress was also assessed throughout the thickness of the retina by measuring the immunofluorescence intensity for the reactive carbonyl species, 4-hydroxynonenal (4-HNE), a final indicator of oxidative stress.
# Levels of 4-HNE were quantified using a primary antibody (#ab48506, monoclonal mouse [HNEJ-2], 1:40, Abcam, Cambridge, UK) to which a second fluorophore-labelled antibody (Alexa Fluor 594, #A A32742, Thermo Fisher Scientific) binds in the 6 groups of mice treated as described above.
# Cell nuclei were visualized using the DAPI organic dye (#ab228549, Abcam, Cambridge, UK).
# The data relating to the fluorescence intensity value are presented for each treatment as mean±SEM. *p<0.05 vs V1/V2; § p<0.05 vs NalO3 in FIG. 2B. Statistical analysis using one-way analysis of variance (ANOVA) test and Bonferroni test.
smiles,measurement,setting,value
COCCCOc1cccc([C@H]2NC(=S)NC3=C2C(=O)c2ccccc23)c1 [compound of formula (II)],protection of the retina from NalO3-induced damage of the cells of the RPE layer (in words),[1],particularly effective in protecting the retina
same,reduction of the NalO3-induced damage on the RPE layer compared to V2 (RPE65 staining intensity),[1],60.0±12.8%
same,protection of the retina from the NalO3-induced increase of 4-HNE (in words),4-hydroxynonenal (4-HNE),protected the retina
same,reduction of the retinal levels of 4-HNE (immunofluorescence),4-hydroxynonenal (4-HNE),50.32±6.30%
Cc1cc2[nH]ncc2cc1-c1ccccc1C(F)(F)F [compound of formula (III)],protection of the retina from NalO3-induced damage of the cells of the RPE layer (in words),[1],particularly effective in protecting the retina
same,reduction of the NalO3-induced damage on the RPE layer compared to V2 (RPE65 staining intensity),[1],96.8±20.0%
same,protection of the retina from the NalO3-induced increase of 4-HNE (in words),4-hydroxynonenal (4-HNE),protected the retina
same,reduction of the retinal levels of 4-HNE (immunofluorescence),4-hydroxynonenal (4-HNE),62.10±7.55%
C[C@H]1[C@H](F)C[C@@H](C(=O)NCc2cc(-c3cnc(C(F)(F)F)nc3)ncc2C(F)(F)F)N1S(=O)(=O)c1ccc(F)cc1 [compound of formula (IV)],protection of the retina from NalO3-induced damage of the cells of the RPE layer (in words),[1],particularly effective in protecting the retina
same,reduction of the NalO3-induced damage on the RPE layer compared to V2 (RPE65 staining intensity),[1],84.5±33%
same,protection of the retina from the NalO3-induced increase of 4-HNE (in words),4-hydroxynonenal (4-HNE),protected the retina
same,reduction of the retinal levels of 4-HNE (immunofluorescence),4-hydroxynonenal (4-HNE),64.16±17.51%
